Literature values in patent US20220166043A1, “NEGATIVE ELECTRODE ELECTROLYTE SOLUTION FOR REDOX FLOW BATTERIES, AND REDOX FLOW BATTERY” (ARM Technologies Co., Ltd., priority 2019, published 2022).
Several values for one entry are separate records, joined by “and”; a condition that tells them apart may be missing. Identical values can stand only once. Like-named read-outs stand apart in the source and are kept apart here.

Settings: octanol-water partition coefficient of the negative electrode solvent

Row | Negative electrode solvent LogP (Log POW) | Molecule | Negative electrode solvent LogP (Log POW) (listed as PP13 TFSI)
1 | 1.402 and 1.40 | Cc1cnc(C)c(C)n1 [2,3,5-trimethylpyrazine] | 
2 | 3.42 | c1ccc(COCCOCc2ccccc2)cc1 [EGDBE, ethylene glycol dibenzyl ether] | 
3 | 1.575 and 1.58 | COC1CCCC1 [MCP, methoxycyclopentane] | 

Row | Molecule | Negative electrode solvent LogP (Log POW) | Negative electrode solvent LogP (Log POW) (listed as PP13 TFSI)
4 | 1-methyl-1-propylpyrrolidinium bis(trifluoromethanesulfonyl)imide | 4.82 | 4.8165
